Data from patent publication US20250144067A1, “PERSONALIZED STARVATION THERAPY FOR CANCER” (Faeth Therapeutics, Inc., priority 2021, published 2025).
Where a name gives a salt, the structure may show the parent alone.

Legend:
[1] = test system: NCI-H292 lung cancer cells; assay: FDA drug screening, complete media vs cholesterol-free media without statin (TABLE 1); assay type: cell-based, human
[2] = test system: NCI-H292 lung cancer cells; assay: FDA drug screening, complete media vs cholesterol-free media with simvastatin (TABLE 2); assay type: cell-based, human; details: for Cholesterol-free media + simvastatin (0.04 μM) / Complete Media: NCI-H292 cells
[3] = NCI-H292 cells, cholesterol-free media without statin
[4] = complete vs cholesterol-free media, greater than 0 enhanced anti-cancer activity, about 0 neutral, below 0 antagonists
[5] = FDA library drug in cholesterol-free media with simvastatin 0.04 μM
[6] = FDA library drug in complete media
[7] = complete media vs cholesterol-free media + simvastatin (0.04 μM), >0 enhanced anti-cancer activity, about 0 neutral, <0 antagonist
[8] = drug in cholesterol-free media with simvastatin 0.04 μM
[9] = NCI-H292 cells, cholesterol-free media without statin, FDA drug library screen
[10] = NCI-H292 cells, complete media, FDA drug library screen
[11] = complete vs cholesterol-free media, […]
[12] = complete media vs cholesterol-free media + simvastatin (0.04 μM), […]
[13] = cholesterol-free media with simvastatin 0.04 μM, FDA drug library screen (TABLE 2)
[14] = complete media, FDA drug library screen (TABLE 2)
[15] = complete media minus cholesterol-free media + simvastatin (0.04 μM), >0 enhanced anti-cancer activity, about 0 neutral, <0 antagonist
[16] = Complete minus Cholesterol-free, greater than 0 enhanced anti-cancer activity, about 0 neutral, below 0 antagonists
[17] = NCI-H292 cells in cholesterol-free media without statin
[18] = NCI-H292 cells in complete media
[19] = complete vs cholesterol-free media, >0 enhanced anti-cancer activity, about 0 neutral, <0 antagonist
[20] = cholesterol-free media with simvastatin 0.04 μM, cell growth value in FDA drug screen
[21] = complete media, cell growth value in FDA drug screen
[22] = complete media minus cholesterol-free media + simvastatin, >0 enhanced anti-cancer activity, about 0 neutral, <0 antagonist
[23] = FDA drug library screen, cholesterol-free media with simvastatin 0.04 μM
[24] = FDA drug library screen, complete media
[25] = complete media minus cholesterol-free media + simvastatin, […]
[26] = Complete minus Cholesterol-free, greater than 0 enhanced anti-cancer activity, about 0 neutral, below 0 antagonist
[27] = NCI-H292 cells, FDA drug library screen, cholesterol-free media without statin
[28] = NCI-H292 cells, FDA drug library screen, complete media
[29] = Complete minus Cholesterol-free, >0 enhanced anti-cancer activity, about 0 neutral, <0 antagonist

Molecule: C[C@]12CC[C@@H]3c4ccc(O)cc4CC[C@H]3[C@@H]1CCC2=O [Estrone]
- Cholesterol-free [1, 3]: 1.426
- Complete ([1]; NCI-H292 cells, complete media): 1.109
- Difference [1, 4]: −0.32
- Cholesterol-free media + simvastatin (0.04 μM) [2, 5]: 1.409
- Complete Media [2, 6]: 1.088
- Difference [2, 7]: −0.32

Molecule: CC(=O)OCC[N+](C)(C)C.[I-] [Acetylcholine (iodide)]
- Cholesterol-free [1, 3]: 1.351
- Complete ([1]; NCI-H292 cells, complete media): 1
- Difference [1, 4]: −0.35
- Cholesterol-free media + simvastatin (0.04 μM) [2, 8]: 1.762
- Complete Media ([2]; drug in complete media): 1.59
- Difference [2, 7]: −0.17

Molecule: Paromomycin (sulfate)
- Cholesterol-free [1, 9]: 0.541
- Complete [1, 10]: 1.15
- Difference [1, 11]: 0.61
- Cholesterol-free media + simvastatin (0.04 μM) [2, 8]: 1.383
- Complete Media ([2]; drug in complete media): 1.216
- Difference [2, 12]: −0.17

Molecule: CC(C)(C)NCC(O)COc1ccccc1C1CCCC1 (single isomer, unassigned; (+)) [(+)-Penbutolol]
- Cholesterol-free [1, 3]: 1.349
- Complete ([1]; NCI-H292 cells, complete media): 1.014
- Difference [1, 4]: −0.33
- Cholesterol-free media + simvastatin (0.04 μM) [2, 8]: 1.153
- Complete Media ([2]; drug in complete media): 0.9518
- Difference [2, 7]: −0.20

Molecule: C#C[C@]1(O)CC[C@H]2[C@@H]3CCc4cc(OC5CCCC5)ccc4[C@H]3CC[C@@]21C [Quinestrol]
- Cholesterol-free [1, 3]: 1.478
- Complete ([1]; NCI-H292 cells, complete media): 1.012
- Difference [1, 4]: −0.47
- Cholesterol-free media + simvastatin (0.04 μM) [2, 13]: 0.01915
- Complete Media [2, 14]: 0.02153
- Difference [2, 15]: 0.00

Molecule: C[C@H](CCC(=O)O)[C@H]1CC[C@H]2[C@@H]3CC[C@@H]4C[C@H](O)CC[C@]4(C)[C@H]3C[C@H](O)[C@]12C [Deoxycholic acid]
- Difference [1, 16]: −0.65
- Cholesterol-free [1, 17]: 1.683
- Complete [1, 18]: 1.028
- Cholesterol-free media + simvastatin (0.04 μM) [2, 5]: 1.379
- Complete Media [2, 6]: 0.931
- Difference [2, 7]: −0.45

Molecule: Nc1nc(N)c2nc(-c3ccccc3)c(N)nc2n1 [Triamterene]
- Cholesterol-free [1, 9]: 0.6087
- Complete [1, 10]: 1.304
- Difference [1, 19]: 0.69
- Cholesterol-free media + simvastatin (0.04 μM) [2, 5]: 1.582
- Complete Media [2, 6]: 1.301
- Difference [2, 7]: −0.28

Molecule: CN/C(=N/CCSCc1nc[nH]c1C)NC#N [Cimetidine]
- Difference [1, 16]: −0.70
- Cholesterol-free [1, 17]: 1.504
- Complete [1, 18]: 0.8083
- Cholesterol-free media + simvastatin (0.04 μM) [2, 5]: 1.358
- Complete Media [2, 6]: 0.952
- Difference [2, 7]: −0.41

Molecule: CN1Cc2c(Cl)cc(Cl)cc2[C@H](c2cccc(S(=O)(=O)NCCOCCOCCNC(=O)NCCCCNC(=O)NCCOCCOCCNS(=O)(=O)c3cccc([C@@H]4CN(C)Cc5c(Cl)cc(Cl)cc54)c3)c2)C1 [Tenapanor]
- Cholesterol-free [1, 9]: 0.6884
- Complete [1, 10]: 0.8628
- Difference [1, 19]: 0.17
- Cholesterol-free media + simvastatin (0.04 μM) [2, 20]: 1.602
- Complete Media [2, 21]: 1.62
- Difference [2, 22]: 0.02

Molecule: NCCC[C@H](N)C(=O)O [L-Ornithine]
- Cholesterol-free [1, 3]: 1.429
- Complete ([1]; NCI-H292 cells, complete media): 1.042
- Difference [1, 4]: −0.39
- Cholesterol-free media + simvastatin (0.04 μM) [2, 23]: 0.9484
- Complete Media [2, 24]: 1.47
- Difference [2, 22]: 0.52

Molecule: Cc1cc(N2CCN([C@@H]3CN[C@H](C(=O)N4CCSC4)C3)CC2)n(-c2ccccc2)n1 [Teneligliptin]
- Cholesterol-free [1, 3]: 1.328
- Complete ([1]; NCI-H292 cells, complete media): 0.9852
- Difference [1, 11]: −0.34
- Cholesterol-free media + simvastatin (0.04 μM) [2, 23]: 0.6861
- Complete Media [2, 24]: 1.012
- Difference [2, 25]: 0.33

Molecule: NC[C@H]1O[C@H](O[C@H]2[C@H](O)[C@@H](O[C@H]3O[C@H](CO)[C@@H](O)[C@H](N)[C@H]3O)[C@H](N)C[C@@H]2N)[C@H](N)[C@@H](O)[C@@H]1O [Bekanamycin]
- Cholesterol-free [1, 9]: 0.873
- Complete [1, 10]: 1.446
- Difference [1, 19]: 0.57
- Cholesterol-free media + simvastatin (0.04 μM) [2, 8]: 1.456
- Complete Media ([2]; drug in complete media): 1.293
- Difference [2, 7]: −0.16

Molecule: CC(C(=O)O)c1ccc(CC2CCCC2=O)cc1 (stereo not shown) [Loxoprofen]
- Difference [1, 16]: −0.88
- Cholesterol-free [1, 17]: 1.914
- Complete [1, 18]: 1.039
- Cholesterol-free media + simvastatin (0.04 μM) [2, 20]: 0.9936
- Complete Media [2, 21]: 1.115
- Difference [2, 22]: 0.12

Molecule: COc1ccc(-c2nc3ccc(C4=NNC(=O)CC4C)cc3[nH]2)cc1 (stereo not shown) [Pimobendan]
- Difference [1, 26]: −0.11
- Cholesterol-free [1, 27]: 1.104
- Complete [1, 28]: 0.9932
- Cholesterol-free media + simvastatin (0.04 μM) [2, 13]: 1.535
- Complete Media [2, 14]: 1.535
- Difference [2, 15]: 0.00

Molecule: Vonoprazan (Fumarate)
- Cholesterol-free [1, 9]: 1.164
- Complete [1, 10]: 1.405
- Difference [1, 11]: 0.24
- Complete Media [2, 6]: 0.7838
- Difference [2, 12]: −0.27

Molecule: CC(C)(C)NCC(O)COc1cccc2c1CCC(=O)N2 (stereo not shown) [Carteolol hydrochloride]
- Difference [1, 26]: −0.19
- Cholesterol-free [1, 27]: 1.114
- Complete [1, 28]: 0.9284
- Cholesterol-free media + simvastatin (0.04 μM) [2, 8]: 1.125
- Complete Media ([2]; drug in complete media): 0.8865
- Difference [2, 7]: −0.24

Molecule: OC[C@@H](O)[C@H](O)[C@@H](O)CO [Xylitol]
- Difference [1, 29]: −0.26
- Cholesterol-free [1, 3]: 1.384
- Complete ([1]; NCI-H292 cells, complete media): 1.123
- Cholesterol-free media + simvastatin (0.04 μM) [2, 8]: 1.234
- Complete Media ([2]; drug in complete media): 1.073
- Difference [2, 7]: −0.16

Molecule: O=NN(CCCl)C(=O)NCCCl [Carmustine]
- Difference ([1]; Complete minus Cholesterol-free, […]): −0.25
- Cholesterol-free [1, 3]: 0.9766
- Complete ([1]; NCI-H292 cells, complete media): 0.7259
- Cholesterol-free media + simvastatin (0.04 μM) [2, 23]: 1.071
- Complete Media [2, 24]: 1.247
- Difference [2, 25]: 0.18

Molecule: C[C@]12CC[C@@H]3c4ccc(OS(=O)(=O)O)cc4CC[C@H]3[C@@H]1CCC2=O [Estropipate]
- Difference [1, 16]: −0.48
- Cholesterol-free [1, 17]: 1.475
- Complete [1, 18]: 0.9927
- Cholesterol-free media + simvastatin (0.04 μM) [2, 23]: 0.9313
- Complete Media [2, 24]: 1.077
- Difference [2, 22]: 0.15

Molecule: CCOc1ccc(Cc2cc([C@@H]3O[C@H](CO)[C@@H](O)[C@H](O)[C@H]3O)ccc2Cl)cc1
- Complete ([1]; NCI-H292 cells, complete media): 0.6259
- Difference [1, 4]: −0.32
- Cholesterol-free media + simvastatin (0.04 μM) [2, 23]: 0.9312
- Complete Media [2, 24]: 1.177
- Difference [2, 22]: 0.25

Molecule: Cc1cn([C@H]2C[C@H](N=[N+]=[N-])[C@@H](CO)O2)c(=O)[nH]c1=O [Zidovudine]
- Difference [1, 29]: −0.01
- Cholesterol-free [1, 9]: 1.211
- Complete [1, 10]: 1.205
- Cholesterol-free media + simvastatin (0.04 μM) [2, 5]: 1.856
- Complete Media [2, 6]: 1.268
- Difference [2, 7]: −0.59

Molecule: CC1=NN(c2ccc(C)c(C)c2)C(=O)/C1=N\Nc1cccc(-c2cccc(C(=O)O)c2)c1O [Eltrombopag (Olamine)]
- Difference [1, 16]: −0.96
- Cholesterol-free [1, 17]: 1.745
- Complete [1, 18]: 0.7856
- Cholesterol-free media + simvastatin (0.04 μM) [2, 13]: 1.098
- Complete Media [2, 14]: 1.058
- Difference [2, 15]: −0.04

Molecule: CC(=O)CCCCn1c(=O)c2c(ncn2C)n(C)c1=O [Pentoxifylline]
- Difference [1, 29]: −0.26
- Cholesterol-free [1, 3]: 1.143
- Complete ([1]; NCI-H292 cells, complete media): 0.8845
- Cholesterol-free media + simvastatin (0.04 μM) [2, 13]: 0.9442
- Complete Media [2, 14]: 0.9268
- Difference [2, 15]: −0.02
